# Patent US4024277A, “Phosphoro-aminosulfenyl derivatives of benzofuran carbamates” (priority 1975, dated 1977)
# How the values were obtained:
# large milkweed bug = test: Initial insecticidal activity, milkweed bug; type: in vivo, Oncopeltus fasciatus (Dallas); conditions: Oncopeltus fasciatus, 48-hour exposure, read-out: % Kill, Milkweed Bug
# Text: (§1) a. Initial Insecticidal Activity
# (§2) In this test, a candidate insecticide, in solution, is applied to either infested or uninfested plants or containers by spraying or dipping. (The preferred test procedure varies with insect species. The dipping method is better than the spraying method, and vice versa, for certain species of insects. Also some species are better adapted to the test by infesting after the chemical treatment rather than before.) Once the tests have been established, a 48-hour exposure period is observed before reading the tests. Insect species included in these tests are Mexican bean beetle (Epilachna varivestis Mulsant), pea aphid [Acyrthosiphon pisum (Harris)], southern armyworm [Spodoptera eridania (Cramer)], twospotted spider mite (Tetranychus urticae Koch), large milkweed bug [Oncopeltus fasciatus (Dallas)], plum curculio [Conotrachelus nenuphar (Herbst)], confused flour beetle (Tribolium confusum Jacquelin duVal) and granary weevil [Sitophilus granarius (Linnaeus)]. Test results are set forth in Table I. A control sample, comprising the solution without the candidate insecticide, is also included.
# plum curculio [1] = test: Initial insecticidal activity, plum curculio; type: in vivo, Conotrachelus nenuphar (Herbst); conditions: Conotrachelus nenuphar, 48-hour exposure, read-out: % Kill, Plum Curculio
# Text: as §1, §2
# southern armyworm = test: Initial insecticidal activity, southern armyworm; type: in vivo, Spodoptera eridania (Cramer); conditions: Spodoptera eridania, 48-hour exposure, read-out: % Kill, Southern Armyworm
# Text: as §1, §2
# plum curculio [2] = test: Seven-day residual insecticidal activity, plum curculio; type: in vivo, Conotrachelus nenuphar (Herbst); conditions: Conotrachelus nenuphar, 48-hour exposure, read-out: % Kill, Plum Curculio
# Text: (§3) b. Seven-Day Residual Insecticidal Activity
# (§4) In this test, a candidate insecticide, in solution, is applied to uninfested plants or containers by dipping or spraying. A seven-day holding period is necessary before infestation. A 48-hour exposure period is observed before evaluation of the tests. The insect species used in this type of test are the same as those listed under initial activity.
# twospotted spider mite = test: Ovicidal activity against the twospotted spider mite; type: in vivo, Tetranychus urticae Koch; conditions: Tetranychus urticae, eggs, 7 to 10 days, read-out: % Kill (ovicidal)
# Procedure: d. Ovicidal Activity Against the Twospotted Spider Mite
# In this test, Pinto bean seedlings are infested with female twospotted spider mites; about 3-4 hours are allowed for egg deposition. Plants are then dipped in TEPP (tetraethylpyrophosphate-commercial emulsifiable concentrate (EC)) solution containing 936 ppm of active ingredient. TEPP kills motile forms on the leaf and promptly degrades without effecting the egg stage. Two to three hours after TEPP treatment the plants are again dipped -- this time into a candidate insecticide solution. The test plants are maintained for 7 to 10 days. Termination of exposure is determined by the time required to attain complete hatch in the untreated check.
# German cockroaches = test: Level II topical test, German cockroaches; type: in vivo, Blattella germanica (Linnaeus); conditions: GC (male), one microgram topically per insect; for mortality at 0.001 mg: Blattella germanica, topical, read-out: % Kill; for % Knockdown: 30 minutes
# Procedure: e. Insecticidal Activity Against House Flies and German Cockroaches
# In a Level II test the compounds of this invention were tested for insecticidal activity against female house flies (resistant) and male German cockroaches. Ten insects were anesthetized with carbon dioxide and placed in a container for about 2 hours, during which time the insects recovered to normal activity. The container confining the insects is fitted with a plunger which is used to force the insects against a nylon mesh at one end of the container. One microliter of an acetone solution containing one microgram of the candidate insecticide was applied topically to each insect. The plunger was withdrawn and the insects were allowed to move freely about the container. Knockdown counts were recorded 10 minutes after treatment of house flies and 30 minutes after treatment of cockroaches.
# granary weevil [3] = test: Initial insecticidal activity, granary weevil; type: in vivo, Sitophilus granarius (Linnaeus); conditions: Sitophilus granarius, 48-hour exposure, read-out: % Kill, Granary Weevil
# Text: as §1, §2
# granary weevil [4] = test: Seven-day residual insecticidal activity, granary weevil; type: in vivo, Sitophilus granarius (Linnaeus); conditions: Sitophilus granarius, 48-hour exposure, read-out: % Kill, Granary Weevil
# Text: as §3, §4
# [5] = Mammalian toxicity, 14-day LD50 in rats; conditions: rat, in vivo, Wistar derived albino rats, method of Miller and Tainter
# Text: The compounds of this invention are characterized by advantageous mammalian toxicity values when compared with values for related compounds. This is shown by comparative values obtained with Wistar derived albino rats in 14-day tests. The animals were fed, housed and watered in accordance with standard laboratory procedures. The 14-day LD50 determination was estimated in accord with the method of Miller and Tainter (Experimental Biology and Medicine, 57, pp. 261-264, 1944).
SMILES,mortality at 39 ppm (large milkweed bug),mortality at 156 ppm (large milkweed bug),mortality at 1250 ppm (large milkweed bug),mortality at 39 ppm (plum curculio [1]),mortality at 156 ppm (plum curculio [1]),mortality at 1250 ppm (plum curculio [1]),mortality at 39 ppm (southern armyworm),mortality at 156 ppm (southern armyworm),mortality at 1250 ppm (southern armyworm),mortality at 39 ppm (plum curculio [2]),mortality at 156 ppm (plum curculio [2]),mortality at 1250 ppm (plum curculio [2]),mortality at 156 ppm (twospotted spider mite),mortality at 1250 ppm (twospotted spider mite),mortality at 0.001 mg (German cockroaches),% Knockdown (German cockroaches),mortality at 39 ppm (granary weevil [3]),mortality at 156 ppm (granary weevil [3]),mortality at 1250 ppm (granary weevil [3]),other results
"CC(C)OP(=O)(OC(C)C)N(C)SN(C)C(=O)Oc1cccc2c1OC(C)(C)C2 [6(c), 2,3-Dihydro-2,2-dimethyl-7-benzofuranyl [(N-diisopropoxyphosphinyl) (N-methyl)aminosulfenyl][methyl]carbamate]",95%,100%,100%,0%,45%,100%,6%,73%,100%,0%,0%,100%,0%,91%,0%,0%,–,–,–,–
"CCN(SN(C)C(=O)Oc1cccc2c1OC(C)(C)C2)P(=O)(OC)OC [5(c), 2,3-dihydro-2,2-dimethyl-7-benzofuranyl [(N-dimethoxyphosphinyl) (N-ethyl)aminosulfenyl][methyl]carbamate]",100%,100%,100%,50%,85%,100%,0%,69%,100%,0%,0%,80%,0%,38%,0%,0%,–,–,–,–
"CCOP(=O)(OCC)N(CC)SN(C)C(=O)Oc1cccc2c1OC(C)(C)C2 [8(c), 2,3-Dihydro-2,2-dimethyl-7-benzofuranyl [(N-diethoxyphosphinyl) (N-ethyl)aminosulfenyl][methyl]carbamate]",100%,100%,100%,0%,45%,100%,0%,59%,100%,0%,5%,100%,0%,26%,0%,0%,–,–,–,–
"CCOP(=O)(OCC)N(C)SN(C)C(=O)Oc1cccc2c1OC(C)(C)C2 [Example 1(c), 2,3-dihydro-2,2-dimethyl-7-benzofuranyl [(N-diethoxyphosphinyl) (N-methyl)-aminosulfenyl][methyl]carbamate]",100%,100%,100%,0%,15%,100%,6%,20%,95%,0%,22%,85%,0%,72%,0%,0%,30%,100%,100%,mortality at 39 ppm (granary weevil [4]; 39 ppm): 8%; mortality at 156 ppm (granary weevil [4]; 156 ppm): 97%; mortality at 1250 ppm (granary weevil [4]; 1250 ppm): 100%; mortality at 39 ppm (twospotted spider mite; 39 ppm): 0%; LD50 at 336 h [5]: 146 mg/kg
CCCN(SN(C)C(=O)Oc1cccc2c1OC(C)(C)C2)P(=O)(Oc1ccccc1)Oc1ccccc1 [7(c)],5%,70%,95%,20%,50%,65%,0%,29%,31%,5%,0%,0%,0%,0%,–,–,–,–,–,–
"CCCOP(=O)(OCCC)N(C)SN(C)C(=O)Oc1cccc2c1OC(C)(C)C2 [2(d), 2,3-dihydro-2,2-dimethyl-7-benzofuranyl [(N-di-n-propoxyphosphinyl) (N-methyl)aminosulfenyl][methyl]carbamate]",100%,100%,100%,0%,20%,100%,0%,54%,100%,0%,5%,86%,2%,80%,10%,0%,88%,100%,100%,LD50 at 336 h [5]: 152 mg/kg
CCCOP(=O)(OCCC)N(CCC)SN(C)C(=O)Oc1cccc2c1OC(C)(C)C2 [3(c)],85%,100%,100%,5%,5%,77%,0%,22%,100%,5%,10%,95%,0%,70%,0%,0%,70%,90%,100%,–
